Laboratory results as given in PMC6753678, “Fueling Open Innovation for Malaria Transmission-Blocking Drugs: Hundreds of Molecules Targeting Early Parasite Mosquito Stages” (Frontiers in Microbiology, 2019).
Where two headings read alike, the source gives them in different places.

Assays:
HepG2 cells [1] = conditions: cited from earlier work
[2] = system: P. falciparum late stage (stages IV-V) gametocytes; experiment: P. falciparum late stage gametocyte ATP depletion assay (Pf GC-ATP); conditions: 1: YES; 0: NO
[3] = system: P. falciparum female gametocytes; experiment: P. falciparum female gametogenesis assay (Pf FGAA); conditions: 1: YES; 0: NO
[4] = system: P. falciparum late stage (stages IV-V) gametocytes; parameters: method as in Almela et al 2016; conditions: TCAMS screen comparison; ref Almela et al 2016; read-out: Pf GCT ATP IC50; cited from earlier work
HepG2 cells [5] = experiment: HepG2 cytotoxicity assay; conditions: HepG2 cytotoxicity unified across the three screens
Summary of the method: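 Cells are plated at 2,500 per well on compound-treated plates in MEM containing 10% fetal bovine serum and 1% NEAA, then incubated 48 h at 37°C.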

[6] = system: P. falciparum female gametocytes; parameters: method as in Miguel-Blanco et al 2017; conditions: TCAMS screen comparison; ref Miguel-Blanco et al 2017; read-out: Pf FGAA IC50; cited from earlier work
[7] = value reported with the Pf FGAA screen, ref Miguel-Blanco et al 2017
[8] = value reported with the Pf GCT ATP screen, ref Almela et al 2016

Row | SMILES | HepG2 cytoxicity (HepG2 cells [1]; [7]) [µM] | HepG2 cytoxicity (HepG2 cells [1]; [8]) [µM] | Is compound selective in assay? Pf GC-ATP active? [2] | Is compound selective in assay? Pf FGAA active? [3] | IC50 [4] [nM] | Unified cytotox (HepG2 cells [5]) [µM] | IC50 [6] [nM]
1 | CC(C)(C)c1ccc(-c2nc3c(ccc4nc(N)nc(N)c43)[nH]2)cc1.Cl [TCMDC-137984] | 2.12 | 3.85 | 1 (1: YES) | 1 (1: YES) | 210 | 2.98 | 260
2 | CCCCCCCCN1CCN(CCCCCCNc2c3ccccc3nc3ccccc23)CC1.Cl [TCMDC-138015] | 3.35 | 3.1 | 1 (1: YES) | 0 (0: NO) | 250 | 3.23 | 640
3 | COc1cc2nc(NCc3cccc(CNC(=O)c4ccc(-c5ccc(C(C)=O)cc5)cc4)c3)nc(N)c2cc1OC.O=C(O)C(F)(F)F [TCMDC-138177] | 6.82 | 9.5 | 0 (0: NO) | 0 (0: NO) | 2000 | 8.16 | 4730
4 | COc1cc2nc(N3CCN(C(=O)c4c(Cl)nsc4-c4ccccc4Cl)CC3)nc(N)c2cc1OC.O=C(O)C(F)(F)F [TCMDC-138186] | 5.89 | 8.18 | 1 (1: YES) | 0 (0: NO) | 220 | 7.04 | 990
5 | Cc1ccc(C(=O)Nc2ccc(Nc3ccnc4cc(-c5ccccn5)ccc34)cc2O)cc1.Cl [TCMDC-138205] | 1.27 | 3.11 | 0 (0: NO) | 0 (0: NO) | 480 | 2.19 | 540
6 | CN(C)CCNCc1ccc(-c2ccc3c(Nc4ccc(Oc5ccccc5)cc4)ccnc3c2)o1 [TCMDC-138399] | 5.69 | 7.57 | 1 (1: YES) | 0 (0: NO) | 330 | 6.63 | 1560
7 | CN(C)CCN(C)Cc1cccc(-c2ccc3c(Nc4ccc(F)cc4Cl)ccnc3c2)c1 [TCMDC-138416] | 6.10 | 3.6 | 1 (1: YES) | 0 (0: NO) | 480 | 4.85 | 7020
8 | CN(C)CCNCc1cccc(-c2ccc3c(Nc4ccc(Oc5ccccn5)cc4)ccnc3c2)c1 [TCMDC-138493] | 3.98 | 4.49 | 1 (1: YES) | 0 (0: NO) | 220 | 4.24 | 820
9 | COc1cc2nc(N3CCC(CCCC4CCNCC4)CC3)nc(NCc3ccccn3)c2cc1OC.O=C(O)C(F)(F)F [TCMDC-138494] | 18.51 | 10.59 | 1 (1: YES) | 0 (0: NO) | 400 | 14.55 | 6860
10 | CN1CCN(CCCNCc2cccc(Nc3nccc(Nc4ccc(Oc5ccccc5)cc4)n3)c2)CC1 [TCMDC-138616] | 4.68 | 5.17 | 1 (1: YES) | 0 (0: NO) | 320 | 4.92 | 980
11 | COc1cc2nc(N3CCC(CNC(=O)c4ccc(-c5ccc(-c6noc(C)n6)cc5)cc4)CC3)nc(N)c2cc1OC [TCMDC-138754] | 4.90 | 4.33 | 1 (1: YES) | 0 (0: NO) | 110 | 4.61 | 1050
12 | COc1cc2nc(N3CCC(CNCc4ccc(-c5ccc(C(F)(F)F)cc5)cc4)CC3)nc(N)c2cc1OC [TCMDC-138757] | 1.43 | <1.56 | 1 (1: YES) | 1 (1: YES) | 17.7 | 1.43 | 100
13 | COc1c(C2CCN(CCN3CCC(CNC(=O)c4ccc(-c5ccc(C#N)cc5)cc4)CC3)CC2)ccc2c1CCCC2 [TCMDC-138859] | 3.43 | 3.3 | 0 (0: NO) | 0 (0: NO) | 1170 | 3.36 | 1460
14 | Cl.Clc1ccc(OCCC2CCN(CCCCCCCN3CCC(CCOc4ccc(Cl)c(Cl)c4)CC3)CC2)cc1Cl [TCMDC-138967] | 1.64 | 2.6 | 0 (0: NO) | 0 (0: NO) | 470 | 2.12 | 520
15 | C=C[C@H]1CN(CCCCCCC)CC[C@H]1CCNc1ccnc2ccc(OC)cc12 [TCMDC-139204] | 2.24 | 3.4 | 0 (0: NO) | 0 (0: NO) | 1080 | 2.82 | 1800
16 | COc1ccc(CNC(=O)c2cnc3c(O)cccc3c2Nc2cccc(NC(=O)c3ccc(Cl)c(Cl)c3)c2)cc1.O=C(O)C(F)(F)F [TCMDC-139607] | – | <1.56 | 0 (0: NO) | 0 (0: NO) | 680 | 1.56 | 1600
17 | CC(Cc1ccc(CNC(=O)c2ccc(CC(C)NCCc3cccc(Cl)c3)cc2)cc1)NCCc1cccc(Cl)c1 (stereo not drawn) [TCMDC-139659] | 2.26 | 3.15 | 0 (0: NO) | 0 (0: NO) | 570 | 2.71 | 860
18 | CC(=O)N(Cc1ccc(CC(C)NCCc2cccc(Cl)c2)cc1)Cc1ccc(CC(C)NCCc2cccc(Cl)c2)cc1 (stereo not drawn) [TCMDC-139678] | 2.85 | 2.3 | 0 (0: NO) | 0 (0: NO) | 1400 | 2.58 | 810
19 | c1cc(Nc2nc(-c3ccc(-c4csc(Nc5ccncc5)n4)cc3)cs2)ccn1 [TCMDC-139725] | 2.26 | 17.3 | 1 (1: YES) | 1 (1: YES) | 260 | 9.78 | 30
20 | CC(Cc1ccc(C(=O)Nc2ccc(CC(C)NCCc3cccc(Cl)c3)cc2)cc1)NCCc1ccc(C(F)(F)F)cc1 (stereo not drawn) [TCMDC-139790] | 4.13 | 3.3 | 1 (1: YES) | 0 (0: NO) | 310 | 3.71 | 1010
21 | CC(CCCCCC(=O)Nc1ccc(CC(C)NCCc2cccc(Cl)c2)cc1)NCCc1cccc(Cl)c1 (stereo not drawn) [TCMDC-139800] | 2.55 | 3.2 | 0 (0: NO) | 0 (0: NO) | 430 | 2.87 | 1390
22 | CCOc1ccccc1CCNC(C)Cc1ccc(C(=O)Nc2ccc(CC(C)NCCc3cccc(Cl)c3)cc2)cc1 (stereo not drawn) [TCMDC-139805] | 3.24 | 3.5 | 0 (0: NO) | 0 (0: NO) | 610 | 3.37 | 1390
23 | CCCCCCCN1CC[C@@H](CCCc2ccnc3ccc(OCCN4CCNCC4)cc23)[C@@H](CC)C1.Cl [TCMDC-139817] | 4.90 | 6.75 | 1 (1: YES) | 0 (0: NO) | 570 | 5.82 | 1860
24 | Cc1oc(-c2ccc(Cl)cc2)cc1C(=O)NCCC1CCN(CCCCCNC(=O)/C=C/c2ccc(Cl)c(Cl)c2)CC1 [TCMDC-140009] | 3.31 | 4.1 | 0 (0: NO) | 0 (0: NO) | 5430 | 3.71 | 1830
25 | CC(Cc1ccc(OCCCCOc2ccccc2)cc1)NCCC1CCCN1C (stereo not drawn) [TCMDC-140017] | 1.12 | <1.56 | 1 (1: YES) | 0 (0: NO) | 95 | 1.12 | 200
